{
  "source": "patent EP2766407B1",
  "about": "“PENTABLOCK POLYMERS” (The Curators Of The University Of Missouri, priority 2011, dated 2013)",
  "type_in_all_cases": "cell-based",
  "key": {"PCEC": {"system": "PCEC", "assay": "MTS assay (cytotoxicity), Pentablock Polymer B protocol", "settings": "Triton X control, blank = 100", "protocol": "Pentablock Polymer B: Cytotoxicity for Pentablock Polymer B was performed at different concentration ranging from 0.5-10 mg/ml. The plates were seeded with cell density of 10,000 cells/100 µL. After 24 hours of incubation fresh medium containing hydrogel of different concentration ranging from 0.5-10 mg/ml were added and further incubated for 24 hours. MTS assay is based on the reduction of the tetrazolium salt (yellow) to fromazone (purple) by mitochondrial enzymes of metabolic active cells. The amount of the fromazone is directly proportional to viable cells. In MTS assay Trioton X treated cells were served as negative control and untreated cells served as positive control. Then, 100 µL of serum free medium containing 20 µL of MTS solution was added to the 96 well plates, and these plates were incubated at 37 °C and 5% CO2 for 4 hours. After incubation, the absorbance of each well was measured at 450 nm by ELISA plate reader. The absorbance is directly proportional to viability of cells. Table 1: MTS assay on Pentablock Polymer A"}, "[1]": {"system": "SIRC (rabbit corneal cell line)", "assay": "MTS assay (cytotoxicity), Pentablock Polymer A protocol", "settings": "Triton X control, blank = 100", "protocol": "(§1) The cytotoxicity and biocompatibility of the Pentablock Polymer A and Pentablock Polymer B were investigated in several cell lines. ARPE-19 (human retinal pigment epithelial cell line), SIRC (rabbit corneal cell line), and RAW 264.7 (mouse macrophage cell line) were obtained from American Type Culture Collection (\"ATCC\"). ARPE-19 cells were cultured in Dubelcco's modified Eagle's medium (\"DMEM/F12\") supplemented with 10% fetal bovine serum (\"FBS\"), 100 U/mL penicillin and 100 µg/mL of streptomycin. SIRC cells were cultured in minimum essential medium (\"MEM\") and supplemented with 10% FBS, 100 U/mL of penicillin and 100 µg/mL of streptomycin. RAW 264.7 (Mouse macrophage cells) cells were cultured in DMEM/F12supplemented with 10% FBS, 10% of nonessential amino acids, 100 U/mL penicillin and 100 µg/mL of streptomycin. The pH of the medium was adjusted to 7.4 and cells were incubated in humidified atmosphere at 37 °C temperature with 5% CO2 environment. The cell cultures were exposed directly to different concentrations of Pentablock Polymer A and Pentablock Polymer B. […]\n(§2) MTS assay is based on the reduction of the tetrazolium salt (yellow) to fromazone (purple) by mitochondrial enzymes of metabolic active cells. […] After incubation, the absorbance of each well was measured at 450 nm by ELISA plate reader. The absorbance is directly proportional to viability of cells. […]"}, "[2]": {"system": "RAW 264.7 (mouse macrophage cell line)", "assay": "MTS assay (cytotoxicity), Pentablock Polymer A protocol", "settings": "RAW 264.7, Triton X control; blank = 100", "protocol": "as §1, §2"}, "[3]": {"system": "ARPE-19 (human retinal pigment epithelial cell line)", "assay": "MTS assay (cytotoxicity), Pentablock Polymer B protocol", "settings": "ARPE 19, Triton X control; blank = 100", "protocol": "as §1, §2"}},
  "data": [
    {"substance": "Triton X", "values": [
      {"measurement": "MTS assay", "setting": "PCEC", "value": "0.000 ± 1.099"},
      {"measurement": "MTS assay", "setting": "[1]", "value": "0 ± 0.271"},
      {"measurement": "MTS assay", "setting": "[2]", "value": "0 ± 0.594"},
      {"measurement": "MTS assay", "setting": "[3]", "value": "0.000 ± 0.491"}
    ]}
  ]
}
